According to the RepoRT retention time repository (doi:10.1016/j.jhazmat.2019.121712):

Assay: Thermo Scientific Acclaim RSLC 120 C18, 100 × 2.1 mm, 2.2 µm, 30 °C; A: 90% water + 10% methanol + 0.01% formic acid + 5 mM ammonium formate; B: methanol + 0.01% formic acid + 5 mM ammonium formate; gradient (min/%B) 0.1/1 3/39 14/99.9 16/99.9
Conditions: stereoisomer not certain

Compound	LC retention time [min]
c1ccc(CC2=NCCN2)cc1	3.28
CNC(=O)Oc1cccc2ccccc12	7.46
Cn1c(=O)c2[nH]cnc2n(C)c1=O	3.93
CCCc1nn(C)c2c(=O)[nH]c(-c3cc(C(=O)CN4CCN(CC=Cc5ccccc5)CC4)ccc3OCC)nc12	9.28
CC(=O)c1ccc2c(c1)N(CC(C)N(C)C)c1ccccc1S2 (configuration not stated)	7.26
CNC(C)C(=O)c1ccccc1 (configuration not stated)	3.68
CC(C)OP(=O)(OC(C)C)SCc1ccccc1	10.6
CCOC(=O)C(c1ccccc1)C1CCCCN1 (configuration not stated)	5.08
CN(C)C(=O)C(c1ccccc1)c1ccccc1	8.57
COc1cc(C(=O)OCCCN(C)CCN(C)CCCOC(=O)c2cc(OC)c(OC)c(OC)c2)cc(OC)c1OC	7.54
CNCCC=C1c2ccccc2COc2ccccc21	7.03
CC(=O)Nc1ccc(O)cc1	3.48
CCOP(=S)(OCC)SCSP(=S)(OCC)OCC	12.4
COc1ccc2c(c1)C13CCCCC1C(C2)N(C)CC3 (configuration not stated)	6.51
CCCSC(=O)N(CCC)CCC	11.5
CN(C)CCC=C1c2ccccc2COc2ccc(CC(=O)O)cc21	6.89
CC12C=CC(=O)C=C1CCC1C2CCC2(C)C(O)CCC12 (configuration not stated)	9.03
Cc1cc(C)cc(C(=O)N(NC(=O)c2ccc3c(c2C)CCCO3)C(C)(C)C)c1	9.93
CC(C)CC(CN)CC(=O)O (configuration not stated)	3.88
COc1cc(NS(=O)(=O)c2ccc(NC(C)=O)cc2)nc(OC)n1	6.23
CN1CCC(=C2c3ccccc3CCc3sccc32)CC1	7.86
COc1ccc(CCN)cc1OC	3.53
CNC(=O)ON=C(C)C(C)SC (configuration not stated)	6.07
Cc1cc(C)cc(OCC2CNC(=O)O2)c1 (configuration not stated)	7.86

Compound	LC retention time [min]
Cc1cccc(N(C)C(=S)Oc2ccc3ccccc3c2)c1	12.2
CCC(NC)C(=O)c1ccccc1 (configuration not stated)	4.26
O=c1cn[nH][nH]1	5.99
CCCN(CCC)C(=O)SCC	10.7
CCCc1nc(C)c2c(=O)[nH]c(-c3cc(S(=O)(=O)N4CCN(CCO)CC4)ccc3OCC)nn12	8.05
CCN(CC)CC(=O)Nc1c(C)cccc1C(=O)OC	4.59
CCOC(=O)C=C1SC(N2CCCCC2)C(=O)N1CC (configuration not stated)	9.85
CC12Cc3cn[nH]c3CC1CCC1C2CCC2(C)C1CCC2(C)O (configuration not stated)	11.3
Cc1ccccc1-n1c(C)nc2ccccc2c1=O	7.83
CC(C)(C)NCC(O)COc1cccc2c1CC(O)C(O)C2 (configuration not stated)	4.29
NC(=O)C(CCN1CCCCC1)(c1ccccc1)c1ccccc1	5.19
CCSc1cc(OC)c(CCN)cc1OC	5.88
COC(=O)c1ccccc1C(=O)c1ccc(OCCN2CCCCC2)cc1	5.44
O=C1N(CCN2CCCCC2)C(=O)C(c2ccccc2)(N2CCCCC2)C(=O)N1CCN1CCCCC1	7.64
COc1cc2c(c(OC)c1OC)-c1ccc(OC)c(=O)cc1C(NC(C)=O)CC2 (configuration not stated)	6.43
CC(C)NCC(O)COc1cccc2ccccc12 (configuration not stated)	6.59
CCC(=O)OC(Cc1ccccc1)(c1ccccc1)C(C)CNC (configuration not stated)	7.84
CCC(C(=O)c1ccc2c(c1)OCO2)N1CCCC1 (configuration not stated)	4.49
Nc1ccc(S(N)(=O)=O)cc1	2.23
CCc1cc(OC)c(CC(C)N)cc1OC (configuration not stated)	6.88
Cc1ccc(C(=O)C(C)N2CCCC2)cc1 (configuration not stated)	4.76
CCOc1ccccc1OC(c1ccccc1)C1CNCCO1 (configuration not stated)	7.28
CCC(N)Cc1ccc2c(c1)OCO2 (configuration not stated)	4.73
CSc1ccc(CC(C)N)cc1 (configuration not stated)	5.24

Compound	LC retention time [min]
CC(O)C1C(=O)N2C(C(=O)O)=C(SC3CNC(C(=O)N(C)C)C3)C(C)C12 (configuration not stated)	10.6
Cc1c(NC=O)c(=O)n(-c2ccccc2)n1C	3.96
CC(C)CCOc1ccc(NC(=S)Nc2ccc(OCCC(C)C)cc2)cc1	13
CCNc1nc(NC(C)C)[nH]c(=O)n1	5.03
CN1CCC(=C2c3ccccc3CC(=O)c3sccc32)CC1	5.54
CN(C)CCN(Cc1cccs1)c1ccccc1	6.32
Nc1ccn(C2OC(CO)C(O)C2O)c(=O)n1 (configuration not stated)	1.39
CC(=O)c1ccc(S(=O)(=O)NC(=O)NC2CCCCC2)cc1	7.72
CCCCn1cc(C(=O)c2cccc3ccccc23)c2ccc(O)cc21	10.6
CNc1nc(NC(C)C)nc(SC)n1	8.17
CCCC(C(=O)c1ccc(C)cc1)N1CCCC1 (configuration not stated)	6.03
Nc1ccc(N=Nc2ccccc2)c(N)n1	8.49
CC(C)(C)C(O)C(Oc1ccc(-c2ccccc2)cc1)n1cncn1 (configuration not stated)	11.3
COC(=O)NC(C(=O)NC(Cc1ccccc1)C(O)CN(Cc1ccc(-c2ccccn2)cc1)NC(=O)C(NC(=O)OC)C(C)(C)C)C(C)(C)C (configuration not stated)	10.9
NCC1(CC(=O)O)CCCCC1	3.78
Nc1nc2c(ncn2COCCO)c(=O)[nH]1	2.34
CC12CCC(=O)C=C1CCC1C2CCC2(C)C1CCC2(C)O (configuration not stated)	10.4
CCOC(=O)C(CCc1ccccc1)NC(C)C(=O)N1CCCC1C(=O)O (configuration not stated)	6.83
Cc1cc(C)n(-c2nc3ccccc3[nH]2)n1	8.27
Cc1nnc(SCC2=C(C(=O)O)N3C(=O)C(NC(=O)Cn4cnnn4)C3SC2)s1 (configuration not stated)	4.16
CCN(CC)C(=O)C(C#N)=Cc1cc(O)c(O)c([N+](=O)[O-])c1	6.89
CCc1ccc(CCOc2ccc(CC3SC(=O)NC3=O)cc2)nc1 (configuration not stated)	9.09
O=C(Nc1ccccc1)Nc1cnns1	7.17
CN1C(=O)CC(C)(c2ccccc2)C1=O (configuration not stated)	6.71

Compound	LC retention time [min]
COC(=O)Nc1cccc(OC(=O)Nc2cccc(C)c2)c1	8.75
CC(COc1ccccc1Cc1ccccc1)N1CCCCC1 (configuration not stated)	8.32
Cn1c([N+](=O)[O-])cnc1COC(N)=O	3.55
C=CCc1ccccc1OCC(O)CNC(C)C (configuration not stated)	6.71
CCC(C)(CC)c1cc(NC(=O)c2c(OC)cccc2OC)on1	9.42
CN(C)c1ccc(C(c2ccccc2)c2ccc(N(C)C)cc2)cc1	13.7
OC(CCN1CCCC1)(c1ccccc1)C1CCCCC1 (configuration not stated)	7.8
CN=C(NC)NCc1ccccc1	3.97
CCCCc1c(C)nc(NCC)[nH]c1=O	8
CCOC(=O)C(SP(=S)(OC)OC)c1ccccc1 (configuration not stated)	10.7
Cn1nc2ccccc2n1	5.11
COC(=O)C1=CCCN(C)C1	1.74
COC(=O)c1ccccc1S(=O)(=O)NC(=O)N(C)c1nc(C)nc(OC)n1	7.94
O=C(O)C(c1ccccc1)C1CCCCN1 (configuration not stated)	4.61
NCCc1ccc(O)cc1	2.28
CCOP(=S)(OCC)SCS(=O)(=O)C(C)(C)C	9.01
CC(C)(C(=O)c1cccnc1)c1cccnc1	6.21
CC(C)NCC(O)COc1cccc2[nH]ccc12 (configuration not stated)	3.89
CC(C)c1ccc(NC(=O)N(C)C)cc1	8.32
CC(C)CC(C)Nc1ccc(Nc2ccccc2)cc1 (configuration not stated)	9.92
CCCc1nn(C)c2c(=S)nc(-c3cc(S(=O)(=O)N4CCN(CCO)CC4)ccc3OCC)[nH]c12	10.5
CC12CCC(=O)C=C1CCC1C2C(O)CC2(C)C(C(=O)CO)CCC12 (configuration not stated)	8.74
c1coc(-c2nc3ccccc3[nH]2)c1	6.48
CCCSc1ccc2nc(NC(=O)OC)[nH]c2c1	9.19

Compound	LC retention time [min]
Cc1cc(C)c(C2=C(OC(=O)CC(C)(C)C)C3(CCCC3)OC2=O)c(C)c1	12.8
COCC(NC(C)=O)C(=O)NCc1ccccc1 (configuration not stated)	5.09
CC(=O)Oc1c(C)cc(OCC(O)CNC(C)C)c(C)c1C (configuration not stated)	6.28
CNCC(O)c1ccc(O)c(O)c1 (configuration not stated)	1.38
CC(C(=O)c1ccccc1)N1CCCC1 (configuration not stated)	4.01
CCSc1ccc2c(c1)N(CCCN1CCN(C)CC1)c1ccccc1S2	10.4
CCC(C)C(=O)OC1CC(O)C=C2C=CC(C)C(CCC(O)CC(O)CC(=O)O)C21 (configuration not stated)	8.36
CN1CCCCC1Cn1cc(C(=O)C23CC4CC(CC(C4)C2)C3)c2ccccc21 (configuration not stated)	9.94
COC1CC(CC2CCC(C)C(C(C)C(=O)O)O2)OC2(OC(C)(C3CCC(C)(C4OC(C5OC(O)(CO)C(C)CC5C)CC4C)O3)CC2C)C1C (configuration not stated)	13.9
OC(CCN1CCCCC1)(c1ccccc1)C1CC2C=CC1C2 (configuration not stated)	7.63
c1cncc(C2CCCCN2)c1 (configuration not stated)	2.94
CCCCCCn1cc(C(=O)c2cccc3ccccc23)cc1-c1ccccc1	13.3
CCCCCCC(C)(C)c1ccc(C2CCCC(O)C2)c(O)c1 (configuration not stated)	13.1
CCCCCCCCOC(=O)c1ccccc1C(=O)OCCCCCCCC	15.3
c1ccc2c(CC3=NCCN3)cccc2c1	4.84
NC1CCc2cc3c(cc2C1)OCO3 (configuration not stated)	4.32
CCC(C)CC(C)N (configuration not stated)	4.68
CC(C)=CCN1CCC2(C)c3cc(O)ccc3CC1C2C (configuration not stated)	5.46
NC(=O)c1cccnc1	2.73
CCCCCCCCc1ccc(OCCOCCO)cc1	14.1
CCC1OC(=O)C(C)C(OC2CC(C)(OC)C(O)C(C)O2)C(C)C(OC2OC(C)CC(N(C)C)C2O)C(C)(O)CC(C)CN(C)C(C)C(O)C1(C)O (configuration not stated)	5.98
